ChEMBL document CHEMBL4342421, “Current scenario of tetrazole hybrids for antibacterial activity” (Eur J Med Chem, 2019)
In brackets after ≈: the same amount, converted by molar mass.

Assays:
Bacillus subtilis [1] = test: Antimicrobial activity against Bacillus subtilis NCIM 2250 after 48 hrs by NCCLS protocol based method; type: functional; conditions: NCIM 2250, 48 h
Escherichia coli [2] = test: Antimicrobial activity against Escherichia coli ATCC 25922 after 48 hrs by NCCLS protocol based method; type: functional; conditions: ATCC 25922, 48 h
Candida albicans [3] = test: Antifungal activity against Candida albicans MTCC 277 after 48 hrs by NCCLS protocol based method; type: functional; conditions: MTCC 277, 48 h
Aspergillus niger [4] = test: Antifungal activity against Aspergillus niger NCIM 545 after 48 hrs by NCCLS protocol based method; type: functional; conditions: NCIM 545, 48 h
PANC-1 = test: Growth inhibition of human PANC1 cells; type: functional
SiHa = test: Growth inhibition of human SiHa cells; type: functional
MDA-MB-231 = test: Growth inhibition of human MDA-MB-231 cells; type: functional
Salmonella typhimurium = test: Antimicrobial activity against Salmonella typhimurium; type: functional, Salmonella enterica subsp. enterica serovar Typhimurium; conditions: Salmonella enterica
Escherichia coli [5] = test: Antimicrobial activity against Escherichia coli; type: functional
Bacillus subtilis [6] = test: Antimicrobial activity against Bacillus subtilis; type: functional
Micrococcus luteus = test: Antibacterial activity against Micrococcus luteus; type: functional
Priestia megaterium = test: Antimicrobial activity against Bacillus megaterium; type: functional
Staphylococcus aureus [7] = test: Antimicrobial activity against Staphylococcus aureus assessed as zone of inhibition at 50 ug/ml; type: functional; conditions: read-out: IZ
Escherichia coli [8] = test: Antimicrobial activity against Escherichia coli assessed as zone of inhibition at 50 ug/ml; type: functional; conditions: read-out: IZ
Candida albicans [9] = test: Antifungal activity against Candida albicans assessed as zone of inhibition at 50 ug/ml; type: functional; conditions: read-out: IZ
Aspergillus niger [10] = test: Antifungal activity against Aspergillus niger assessed as zone of inhibition at 50 ug/ml; type: functional; conditions: read-out: IZ
Candida albicans [11] = test: Antifungal activity against Candida albicans; type: functional
Bacillus cereus [12] = test: Antimicrobial activity against Bacillus cereus; type: functional
Aspergillus niger [13] = test: Antifungal activity against Aspergillus niger assessed as zone of inhibition at 250 ug/ml; type: functional; conditions: read-out: IZ
Candida albicans [14] = test: Antifungal activity against Candida albicans assessed as zone of inhibition at 250 ug/ml; type: functional; conditions: read-out: IZ
Pseudomonas aeruginosa [15] = test: Antimicrobial activity against Pseudomonas aeruginosa assessed as zone of inhibition at 250 ug/ml; type: functional; conditions: read-out: IZ
Bacillus cereus [16] = test: Antimicrobial activity against Bacillus cereus assessed as zone of inhibition at 250 ug/ml; type: functional; conditions: read-out: IZ
Staphylococcus aureus [17] = test: Antimicrobial activity against Staphylococcus aureus; type: functional
Escherichia coli [18] = test: Antimicrobial activity against Escherichia coli assessed as zone of inhibition at 250 ug/ml; type: functional; conditions: read-out: IZ
Staphylococcus aureus [19] = test: Antimicrobial activity against Staphylococcus aureus assessed as zone of inhibition at 250 ug/ml; type: functional; conditions: read-out: IZ
Pseudomonas aeruginosa [20] = test: Antimicrobial activity against Pseudomonas aeruginosa; type: functional
Aspergillus niger [21] = test: Antifungal activity against Aspergillus niger; type: functional

Compound: CCOC(=O)C(C#N)C(c1cc2c(OC)cccc2n2nnnc12)P(=O)(OCC)OCC (stereo not given)
- MIC (Bacillus subtilis [1]): 10 to 20 µg/mL (≈ 21.7 to 43.3 µM)
- MIC (Escherichia coli [2]): 10 to 20 µg/mL (≈ 21.7 to 43.3 µM)
- MIC (Candida albicans [3]): 10 to 20 µg/mL (≈ 21.7 to 43.3 µM)
- MIC (Aspergillus niger [4]): 10 to 20 µg/mL (≈ 21.7 to 43.3 µM)

Compound: CCn1cc(C(=O)O)c(=O)c2cnc(N3CCN(C(=O)CCSc4nnnn4-c4ccc(Br)cc4)CC3)nc21
- GI50 (PANC-1): 0.07 to 0.22 µM
- GI50 (SiHa): 0.07 to 0.22 µM
- GI50 (MDA-MB-231): 0.07 to 0.22 µM

Compound: CCOC(=O)C(C#N)C(c1cc2ccccc2n2nnnc12)P(=O)(OCC)OCC (stereo not given)
- MIC (Bacillus subtilis [1]): 10 to 20 µg/mL (≈ 23.2 to 46.4 µM)
- MIC (Escherichia coli [2]): 10 to 20 µg/mL (≈ 23.2 to 46.4 µM)
- MIC (Candida albicans [3]): 10 to 20 µg/mL (≈ 23.2 to 46.4 µM)
- MIC (Aspergillus niger [4]): 10 to 20 µg/mL (≈ 23.2 to 46.4 µM)

Compound: CCn1nnnc1SCCC(=O)N1CCN(c2cc3c(cc2F)c(=O)c(C(=O)O)cn3C2CC2)CC1
- MIC (Salmonella typhimurium): 15.6 µg/mL (≈ 30.3 µM)
- MIC (Escherichia coli [5]): 15.6 µg/mL (≈ 30.3 µM)
- GI50 (PANC-1): ≤ 1 µM
- MIC (Bacillus subtilis [6]): 15.6 µg/mL (≈ 30.3 µM)
- GI50 (SiHa): ≤ 1 µM
- GI50 (MDA-MB-231): ≤ 1 µM
- MIC (Micrococcus luteus): 15.6 µg/mL (≈ 30.3 µM)
- MIC (Priestia megaterium): 15.6 µg/mL (≈ 30.3 µM)

Compound: CCOC(=O)C(C#N)C(c1cc2c(C)cccc2n2nnnc12)P(=O)(OCC)OCC (stereo not given)
- MIC (Bacillus subtilis [1]): 10 to 20 µg/mL (≈ 22.5 to 44.9 µM)
- MIC (Escherichia coli [2]): 10 to 20 µg/mL (≈ 22.5 to 44.9 µM)
- MIC (Candida albicans [3]): 10 to 20 µg/mL (≈ 22.5 to 44.9 µM)
- MIC (Aspergillus niger [4]): 10 to 20 µg/mL (≈ 22.5 to 44.9 µM)

Compound: O=C(/C=C/c1ccccc1)n1nnnc1-c1ccccc1
- zone of inhibition at 50 µg/mL (Staphylococcus aureus [7]): 8 to 15 mm
- zone of inhibition at 50 µg/mL (Escherichia coli [8]): 8 to 15 mm
- zone of inhibition at 50 µg/mL (Candida albicans [9]): 8 to 15 mm
- zone of inhibition at 50 µg/mL (Aspergillus niger [10]): 8 to 15 mm

Compound: COc1cc(-n2nnnc2SCCC(=O)N2CCN(c3cc4c(cc3F)c(=O)c(C(=O)O)cn4C3CC3)CC2)cc(OC)c1OC
- MIC (Salmonella typhimurium): 15.6 µg/mL (≈ 23.9 µM)
- MIC (Escherichia coli [5]): 15.6 µg/mL (≈ 23.9 µM)
- GI50 (PANC-1): ≤ 1 µM
- MIC (Bacillus subtilis [6]): 15.6 µg/mL (≈ 23.9 µM)
- GI50 (SiHa): ≤ 1 µM
- GI50 (MDA-MB-231): ≤ 1 µM
- MIC (Micrococcus luteus): 15.6 µg/mL (≈ 23.9 µM)
- MIC (Priestia megaterium): 15.6 µg/mL (≈ 23.9 µM)

Compound: Cc1ccc(/C=C/C(=O)n2nnnc2-c2ccccc2)cc1
- zone of inhibition at 50 µg/mL (Staphylococcus aureus [7]): 8 to 15 mm
- zone of inhibition at 50 µg/mL (Escherichia coli [8]): 8 to 15 mm
- zone of inhibition at 50 µg/mL (Candida albicans [9]): 8 to 15 mm
- zone of inhibition at 50 µg/mL (Aspergillus niger [10]): 8 to 15 mm

Compound: O=C(/C=C/c1ccc(Br)cc1)n1nnnc1-c1ccccc1
- zone of inhibition at 50 µg/mL (Staphylococcus aureus [7]): 8 to 15 mm
- zone of inhibition at 50 µg/mL (Escherichia coli [8]): 8 to 15 mm
- zone of inhibition at 50 µg/mL (Candida albicans [9]): 8 to 15 mm
- zone of inhibition at 50 µg/mL (Aspergillus niger [10]): 8 to 15 mm

Compound: O=C(O)c1cn(C2CC2)c2cc(N3CCN(C(=O)CCSc4nnnn4-c4ccc(F)c(F)c4F)CC3)c(F)cc2c1=O
- MIC (Salmonella typhimurium): 15.6 µg/mL (≈ 25.3 µM)
- MIC (Escherichia coli [5]): 15.6 µg/mL (≈ 25.3 µM)
- GI50 (PANC-1): ≤ 1 µM
- MIC (Bacillus subtilis [6]): 15.6 µg/mL (≈ 25.3 µM)
- GI50 (SiHa): ≤ 1 µM
- GI50 (MDA-MB-231): ≤ 1 µM
- MIC (Micrococcus luteus): 15.6 µg/mL (≈ 25.3 µM)
- MIC (Priestia megaterium): 15.6 µg/mL (≈ 25.3 µM)

Compound: O=C(/C=C/c1ccc(Cl)cc1)n1nnnc1-c1ccccc1
- zone of inhibition at 50 µg/mL (Staphylococcus aureus [7]): 8 to 15 mm
- zone of inhibition at 50 µg/mL (Escherichia coli [8]): 8 to 15 mm
- zone of inhibition at 50 µg/mL (Candida albicans [9]): 8 to 15 mm
- zone of inhibition at 50 µg/mL (Aspergillus niger [10]): 8 to 15 mm

Compound: COc1cc(-c2nnnn2-c2nc3ccccc3s2)cc(OC)c1OC
- MIC (Candida albicans [11]): 50 to 100 µg/mL (≈ 135 to 271 µM)
- MIC (Bacillus cereus [12]): 50 to 100 µg/mL (≈ 135 to 271 µM)
- zone of inhibition at 250 µg/mL (Aspergillus niger [13]): 16 to 26 mm
- zone of inhibition at 250 µg/mL (Candida albicans [14]): 16 to 26 mm
- zone of inhibition at 250 µg/mL (Pseudomonas aeruginosa [15]): 16 to 26 mm
- zone of inhibition at 250 µg/mL (Bacillus cereus [16]): 16 to 26 mm
- MIC (Staphylococcus aureus [17]): 50 to 100 µg/mL (≈ 135 to 271 µM)
- MIC (Escherichia coli [5]): 50 to 100 µg/mL (≈ 135 to 271 µM)
- zone of inhibition at 250 µg/mL (Escherichia coli [18]): 16 to 26 mm
- zone of inhibition at 250 µg/mL (Staphylococcus aureus [19]): 16 to 26 mm
- MIC (Pseudomonas aeruginosa [20]): 50 to 100 µg/mL (≈ 135 to 271 µM)
- MIC (Aspergillus niger [21]): 50 to 100 µg/mL (≈ 135 to 271 µM)

Compound: CCOC(=O)C(C#N)C(c1cc2ccc(C)cc2n2nnnc12)P(=O)(OCC)OCC (stereo not given)
- MIC (Bacillus subtilis [1]): 10 to 20 µg/mL (≈ 22.5 to 44.9 µM)
- MIC (Escherichia coli [2]): 10 to 20 µg/mL (≈ 22.5 to 44.9 µM)
- MIC (Candida albicans [3]): 10 to 20 µg/mL (≈ 22.5 to 44.9 µM)
- MIC (Aspergillus niger [4]): 10 to 20 µg/mL (≈ 22.5 to 44.9 µM)

Compound: COc1ccc(/C=C/C(=O)n2nnnc2-c2ccccc2)cc1
- zone of inhibition at 50 µg/mL (Staphylococcus aureus [7]): 8 to 15 mm
- zone of inhibition at 50 µg/mL (Escherichia coli [8]): 8 to 15 mm
- zone of inhibition at 50 µg/mL (Candida albicans [9]): 8 to 15 mm
- zone of inhibition at 50 µg/mL (Aspergillus niger [10]): 8 to 15 mm

Compound: O=C(/C=C/c1ccc([N+](=O)[O-])cc1)n1nnnc1-c1ccccc1
- zone of inhibition at 50 µg/mL (Staphylococcus aureus [7]): 8 to 15 mm
- zone of inhibition at 50 µg/mL (Escherichia coli [8]): 8 to 15 mm
- zone of inhibition at 50 µg/mL (Candida albicans [9]): 8 to 15 mm
- zone of inhibition at 50 µg/mL (Aspergillus niger [10]): 8 to 15 mm

Compound: O=C(/C=C/c1ccccc1Cl)n1nnnc1-c1ccccc1
- zone of inhibition at 50 µg/mL (Staphylococcus aureus [7]): 8 to 15 mm
- zone of inhibition at 50 µg/mL (Escherichia coli [8]): 8 to 15 mm
- zone of inhibition at 50 µg/mL (Candida albicans [9]): 8 to 15 mm
- zone of inhibition at 50 µg/mL (Aspergillus niger [10]): 8 to 15 mm

Compound: O=C(O)c1cn(C2CC2)c2cc(N3CCN(C(=O)CCSc4nnnn4Cc4ccccc4)CC3)c(F)cc2c1=O
- MIC (Salmonella typhimurium): 15.6 µg/mL (≈ 27 µM)
- MIC (Escherichia coli [5]): 15.6 µg/mL (≈ 27 µM)
- GI50 (PANC-1): ≤ 1 µM
- MIC (Bacillus subtilis [6]): 15.6 µg/mL (≈ 27 µM)
- GI50 (SiHa): ≤ 1 µM
- GI50 (MDA-MB-231): ≤ 1 µM
- MIC (Micrococcus luteus): 15.6 µg/mL (≈ 27 µM)
- MIC (Priestia megaterium): 15.6 µg/mL (≈ 27 µM)

Compound: CCOC(=O)C(C#N)C(c1cc2ccc(OC)cc2n2nnnc12)P(=O)(OCC)OCC (stereo not given)
- MIC (Bacillus subtilis [1]): 10 µg/mL (≈ 21.7 µM)
- MIC (Escherichia coli [2]): 10 µg/mL (≈ 21.7 µM)
- MIC (Candida albicans [3]): 10 µg/mL (≈ 21.7 µM)
- MIC (Aspergillus niger [4]): 10 µg/mL (≈ 21.7 µM)
